Assay results: US10538497B2, “Compounds as indoleamine 2,3-dioxygenase inhibitors” (Merck Sharp & Dohme Corp., priority 2015, dated 2020)

Assays:
[1] = target: T1, IDO1 (Homo sapiens (Human), UniProt P14902); experiment: IDO1 Enzyme Assay; settings: read-out: IDO1 Enzyme Assay, IC50; HIS-tagged recombinant IDO1, 40 nM
[2] = target: T1, IDO1; experiment: IDO1 Cellular Assay in Hela Cells Stimulated with IFNγ; format: cell-based; settings: Hela cells stimulated with IFNγ 100 ng/mL; read-out: IDO1 HELA Cell Assay, IC50
[3] = target: T1, IDO1; experiment: IDO1 Human Whole Blood Assay; format: cell-based; settings: LPS and IFNγ 100 ng/mL, kynurenine by LC/MS/MS
Procedure: IDO1 Human Whole Blood Assay
LPS and IFNγ was prepared in RPMI to a 10× of final conc. (1000 ng/mL), final concentration is 100 ng/mL.
Human whole blood was drawn in sodium heparin coated tubes from healthy internal donors. Two hundred fourty μL of blood was transferred to each of the wells of a v-bottom 96 well plate. Thirty μL of compound was transferred from intermediate dilution plate, and incubated for 15 min. […] from stimulants was then transferred to blood and mixed thoroughly. Plate was covered with breathable membrane and incubated at 37° C. for overnight (18 h).
On day 2 isotope labeled standard of kunurenine and tryptophan was made in water at 10× concentration and 30 μL was added to the blood at 3 μM final concentration. The assay plates were centrifuged at 300×G for 10 min with no brake to separate plasma from red blood cells. Sixty μL of plasma samples was removed without disturbing red blood cells. Plasma was diluted with RPMI in 1:1 ratio and proteins were precipitated out with two volume of Acetonitrile. The plates was centrifuged at 4000×G for 60 min. Twenty μL of supernatant was carefully transferred to a 384 well plate contain 40 μL of 0.1% formic acid in water and analysed by LC/MS/MS.
LC/MS/MS analyses were performed using Thermo Fisher's LX4-TSQ Quantum Ultra system. This system consists of four Agilent binary high-performance liquid chromatography (HPLC) pumps and a TSQ Quantum Ultra triple quadrupole MS/MS instrument. For each sample, 5 μL were injected onto an Atlantis T3 column column (2.1 mm×150 mm, 3 μm particle size) from Waters. The mobile phase gradient pumped at 0.8 mL/min was used to elute the analytes from the column at 25° C. The elution started at 0% B increasing linearly to 25% B at 6.5 min, holding at 25% for 1 min, re-equilibrating to 10 min. Mobile phase A consisted of 0.1% formic acid in water. Mobile phase B consisted of 0.1% of formic acid in acetonitrile. Data was acquired in positive mode using a HESI interface. The operational parameters for the TSQ Quantum Ultra instrument were a spray voltage of 4000 V, capillary temperature of 380° C., vaporizer temperature 400° C., shealth gas 60 arbitrary units, Aux gas 20 arbitrary units, tube lens 85 and collision gas 1.2 mTorr. SRM chromatograms of kynurenine (Q1: 209.2>Q3:94.0) and internal standard (Q1: 215.3>Q3:98.2) were collected for 90 sec. The peak area was integrated by Xcalibur Quan software. The ratios between the kynurenine generated in the reaction and 2D6-Kynurenine spiked-in internal standard were used to generate percentage inhibition and IC50 values. Compounds were titrated and IC50's were calculated by 4 parameter sigmoidal curve fitting formula.

[4] = target: T1, IDO1; experiment: IDO1 Cellular Assay in Frozen HEK293 Cells Transiently Transfected with Human IDO1; format: cell-based; settings: HEK293 cells transiently transfected with human IDO1; read-out: IDO1 HEK293 Cell Assay, IC50

T1 sequence (P14902 whole entry): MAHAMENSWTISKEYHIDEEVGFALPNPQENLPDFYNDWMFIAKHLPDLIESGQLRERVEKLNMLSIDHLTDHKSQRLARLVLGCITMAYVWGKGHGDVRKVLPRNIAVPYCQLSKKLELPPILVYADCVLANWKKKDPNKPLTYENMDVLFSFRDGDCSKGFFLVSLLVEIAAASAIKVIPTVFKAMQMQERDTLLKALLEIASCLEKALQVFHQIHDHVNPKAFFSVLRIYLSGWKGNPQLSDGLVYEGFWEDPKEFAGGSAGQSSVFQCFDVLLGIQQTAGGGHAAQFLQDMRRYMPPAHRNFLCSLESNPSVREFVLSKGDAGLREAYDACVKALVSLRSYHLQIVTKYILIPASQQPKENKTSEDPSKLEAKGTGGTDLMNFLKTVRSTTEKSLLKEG

| Structure (SMILES) | IC50 [1] [nM] | IC50 [2] [nM] | IC50 [3] [nM] | IC50 [4] [nM] |
| --- | --- | --- | --- | --- |
| N#Cc1cc(N/C(=N\O)c2nonc2SC[C@@H](O)CO)ccc1F [Example 140, N-(3-cyano-4-fluorophenyl)-4-{[(2S)-2,3-dihydroxypropyl]sulfanyl}-N′-hydroxy-1,2,5-oxadiazole-3-carboximidamide] | 96.7 | 245 | 384 | 269 |
| O=C(CSc1nonc1/C(=N/O)Nc1ccc(F)c(Br)c1)NC(CO)CO [Example 145, 2-({4-[N-(3-bromo-4-fluorophenyl)-N′-hydroxycarbamimidoyl]-1,2,5-oxadiazol-3-yl}sulfanyl)-N-[2-hydroxy-1-(hydroxymethyl)ethyl]acetamide] | 50.9 | 68 | 1270 | 77.1 |
| CN1C(=O)NC[C@H]1CSc1nonc1/C(=N/O)Nc1ccc(F)c(C#N)c1 [Example 146] | 155 | 398 | 1400 | 222 |
| N#Cc1cc(N/C(=N\O)c2nonc2SC[C@H](O)CO)ccc1F [Example 147, N-(3-cyano-4-fluorophenyl)-4-{[(2R)-2,3-dihydroxypropyl]sulfanyl}-N′-hydroxy-1,2,5-oxadiazole-3-carboximidamide] | 154 | 494 | 1210 | 373 |
| N#Cc1cc(N/C(=N\O)c2nonc2SC[C@H]2CCC(=O)N2)ccc1F [Example 148, N-(3-cyano-4-fluorophenyl)-N′-hydroxy-4-({[(2R)-5-oxopyrrolidin-2-yl]methyl}sulfanyl)-1,2,5-oxadiazole-3-carboximidamide] | 172 | 303 | 1760 | 209 |
| N#Cc1cc(N/C(=N\O)c2nonc2SC[C@@H]2CCC(=O)N2)ccc1F [Example 149, N-(3-cyano-4-fluorophenyl)-N′-hydroxy-4-({[(2S)-5-oxopyrrolidin-2-yl]methyl}sulfanyl)-1,2,5-oxadiazole-3-carboximidamide] | 110 | 285 | 1050 | 120 |
| OC[C@@H](O)CSc1nonc1/C(=N/O)Nc1ccc(F)c(C(F)F)c1 [Example 168, N-[3-(difluoromethyl)-4-fluorophenyl]-4-{[(2R)-2,3-dihydroxypropyl]sulfanyl}-N′-hydroxy-1,2,5-oxadiazole-3-carboximidamide] | 69.1 | 111 | 475 | 55.1 |
| OC[C@@H](O)CSc1nonc1/C(=N/O)Nc1ccc(F)c(Cl)c1 [Example 169, N-(3-chloro-4-fluorophenyl)-4-{[(2R)-2,3-dihydroxypropyl]sulfanyl}-N′-hydroxy-1,2,5-oxadiazole-3-carboximidamide] | 52.8 | 191 | 1290 | 93.7 |
| CS(=O)(=O)NCCSc1nonc1/C(=N/O)Nc1ccc(F)c(C#N)c1 [Example 171, N-(3-cyano-4-fluorophenyl)-N′-hydroxy-4-({2-[(methylsulfonyl)amino]ethyl}sulfanyl)-1,2,5-oxadiazole-3-carboximidamide] | 110 | 120 | 660 | 30.8 |
| CC(=O)N[C@H](CO)CSc1nonc1/C(=N/O)Nc1ccc(F)c(Br)c1 [Example 173, N-[(1R)-2-({4-[N-(3-bromo-4-fluorophenyl)-N′-hydroxycarbamimidoyl]-1,2,5-oxadiazol-3-yl}sulfanyl)-1-(hydroxymethyl)ethyl]acetamide] | 93.7 | 246 | 827 | 155 |
| O=C(CSc1nonc1/C(=N/O)Nc1ccc(F)c(Br)c1)NC[C@H](O)CO [Example 175, 2-({4-[N-(3-bromo-4-fluorophenyl)-N′-hydroxycarbamimidoyl]-1,2,5-oxadiaxol-3-yl}sulfanyl)-N-[(2S)-2,3-dihydroxypropyl]acetamide] | 125 | 223 | 1720 | 281 |
| N#Cc1cc(N/C(=N\O)c2nonc2SCCNS(=O)(=O)C2CC2)ccc1F [Example 178, N-(3-cyano-4-fluorophenyl)-4-({2-[(cyclopropylsulfonyl)amino]ethyl}sulfanyl)-N′-hydroxy-1,2,5-oxadiazole-3-carboximidamide] | 60.8 | 57.2 | 1080 | 35.5 |
| N#Cc1cc(N/C(=N\O)c2nonc2SCCNS(N)(=O)=O)ccc1F [Example 181, N-(3-cyano-4-fluorophenyl)-N′-hydroxy-4-{[2-(sulfamoylamino)ethyl]sulfanyl}-1,2,5-oxadiazole-3-carboximidamide] | 119 | 261 | 3240 | 136 |
| N#Cc1cc(N/C(=N\O)c2nonc2SCCNC(=O)CO)ccc1F [Example 182, N-[2-({4-[N-(3-cyano-4-fluorophenyl)-N′-hydroxycarbamimidoyl]-1,2,5-oxadiazol-3-yl}sulfanyl)ethyl]-2-hydroxyacetamide] | 135 | 321 | 526 | 186 |
| CNC(=O)CSc1nonc1/C(=N/O)Nc1ccc(F)c(C#N)c1 [Example 185, 2-({4-[N-(3-cyano-4-fluorophenyl)-N′-hydroxycarbamimidoyl]-1,2,5-oxadiazol-3-yl}sulfanyl)-N-methylacetamide] | 88 | 166 | 395 | 65.4 |
| O/N=C(\Nc1ccc(F)c(Br)c1)c1nonc1SCc1nnc[nH]1 [Example 191, N-(3-bromo-4-fluorophenyl)-N′-hydroxy-4-[(4H-1,2,4-triazol-3-ylmethyl)sulfanyl]-1,2,5-oxadiazole-3-carboximidamide] | 43.7 | 22.6 | 903 | 10 |
